Experimental data as given in patent US20260217767A1, “NOVEL A4B7 THIOETHER PEPTIDE DIMER ANTAGONISTS” (Protagonist Therapeutics, Inc., priority 2014, published 2026).
Where a SMILES comes first, the peptide text is derived from it.

What was measured:
α4β1 = molecular target: T1, α4β1 (Homo sapiens, UniProt P05556+P13612); assay: α4β1-VCAM Competition ELISA; assay type: binding; conditions: thioether peptide dimers, Table 7; read-out: ELISA A4B1
T1 construct: purchased R&D Systems 5668-A4
Protocol: α4β1-VCAM Competition ELISA
A Nunc MaxiSorp plate was coated with rh VCAM-1/CD106 Fc chimera (R&D #862-VC) at 400 ng/well in 50 ul per well in 1×PBS and incubated overnight at 4° C. The solution was removed by shaking and then blocked with 250 ul of 1% BSA in 1×PBS per well. The wells were then incubated at room temperature for 1 hr with shaking. Each well was then washed once with wash buffer (50 mM Tris-HCl pH7.6, 100 mM NaCL, 1 mM MnCl2 or MgCl2, 0.05% Tween-20). 25 ul of serial dilutions of peptides starting at 200 μM in assay buffer (Assay buffer: 50 mM Tris-HCl pH7.6, 100 mM NaCl, 1 mM MnCl2 or MgCl2, 0.05% Tween-20) was added to each well. Additionally, 25 μl of α4β1 (R&D Systems #5668-A4) was added to each well at a fixed concentration of 120 nM. The final peptide and α4β1 concentrations were 100 μM and 60 nM, respectively. The plates were then incubated at 37° C. for 2 hr. The solution was then removed by shaking and each well was washed three times with wash buffer. 50 ul of 9F10 antibody at 4 ug/ml (purified mouse anti-human CD49d, BD Bioscience Cat #555502) was then added to each well, and the plate was incubated at room temperature for Ihr with shaking. The solution was again removed by shaking, and each well was washed three times with wash buffer. 50 μl of peroxidase-conjugated AffiniPure Goat anti-mouse IgG (Jackson immune research cat #115-035-003) diluted in 1:5000 in assay buffer was added to each well. The plate was incubated at room temperature for 30 min with shaking. Each well was then washed 3 times with wash buffer. 100 ul of TMB was then added to each well and closely observe during developing time. The reaction was stepped with 2N H2SO4 and absorbance was read at 450 nm.

[1] = Simulated Intestinal Fluid (SIF) Stability Assay; assay type: in vitro ADME; conditions: pig, simulated intestinal fluid (SIF) with 1% porcine pancreatin, pH 6.5, porcine pancreatin, 37° C.; dimers, Table 7
Method in brief: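 Percent peptide remaining over time was measured by LC-MS/MS as the peak-area ratio to internal standard, and a first-order decay fit gave half-life. Digests contained 22 μM peptide and 1% pancreatin in pH 6.5 FaSSIF buffer at 37° C. Aliquots were quenched in organic solvent with formic acid.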

Jurkat E6.1 cells = Jurkat E6.1 cells (Homo sapiens, UniProt P05556+P13612); assay: α4β1-VCAM Cell Adhesion Assay; assay type: cell-based; conditions: thioether peptide dimers, Table 7; read-out: Cell Adhesion A4B1
Sequence of Jurkat E6.1 cells (P05556 21-798, one chain of several): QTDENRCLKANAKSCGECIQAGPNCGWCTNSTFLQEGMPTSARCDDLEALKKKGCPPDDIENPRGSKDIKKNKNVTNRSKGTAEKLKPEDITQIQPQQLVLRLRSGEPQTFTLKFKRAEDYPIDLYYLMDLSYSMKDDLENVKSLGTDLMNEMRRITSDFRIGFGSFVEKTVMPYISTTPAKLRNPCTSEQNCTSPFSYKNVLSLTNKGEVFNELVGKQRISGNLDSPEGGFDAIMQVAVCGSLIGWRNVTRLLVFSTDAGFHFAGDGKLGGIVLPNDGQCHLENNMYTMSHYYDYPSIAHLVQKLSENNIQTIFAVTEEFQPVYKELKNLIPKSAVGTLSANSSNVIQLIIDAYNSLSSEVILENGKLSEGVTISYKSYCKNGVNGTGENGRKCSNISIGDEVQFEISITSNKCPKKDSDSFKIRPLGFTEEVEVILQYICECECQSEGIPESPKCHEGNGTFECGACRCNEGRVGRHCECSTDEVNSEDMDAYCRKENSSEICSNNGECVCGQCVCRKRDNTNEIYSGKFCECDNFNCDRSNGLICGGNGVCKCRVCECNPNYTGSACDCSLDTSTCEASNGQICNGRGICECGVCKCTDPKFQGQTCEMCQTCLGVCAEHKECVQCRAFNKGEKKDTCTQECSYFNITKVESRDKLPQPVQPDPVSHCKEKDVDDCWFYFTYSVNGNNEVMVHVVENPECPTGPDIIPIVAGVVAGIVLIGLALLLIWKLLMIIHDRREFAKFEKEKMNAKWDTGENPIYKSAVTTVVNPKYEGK
Protocol: α4β1-VCAM Cell Adhesion Assay
Jurkat E6.1 cells (Sigma #88042803) were cultured in RPMI 1640 HEPES medium (Invitrogen #22400-089) supplemented with 10% serum (Fetal Bovine Serum, Invitrogen #16140-071), 1 mM sodium pyruvate (Invitrogen #11360-070), 2 mM L-glutamine (Invitrogen #25030-081) and Penicillin-Streptomycin (Invitrogen #15140-122) at 100 units of penicillin and 100 μg of streptomycin per ml. The cells were washed two times in DMEM medium (ATCC #30-2002) supplemented with 0.1% BSA, 10 mM HEPES pH 7 and 1 mM MnCl2. The cells were re-suspended in supplemented DMEM medium at a density of 4×10^6 cells/ml.
A Nunc MaxiSorp plate was coated with rh VCAM-1/CD106 Fc chimera (R&D #862-VC) at 400 ng per well in 50 μl per well in 1×PBS and incubated at 4° C. overnight. The solution was then removed by shaking, blocked with 250 μl per well PBS containing 1% BSA, and incubated at 37° C. for 1 hr. The solution was removed by shaking. Peptides were diluted by serial dilution in a final volume of 50 μl per well (2× concentration). To each well, 50 μl of cells (200,000 cells) were added and the plate was incubated at 37° C., 5% CO2 for 30-45 min to allow cell adhesion. The wells were washed manually three times (100 μl per wash) with supplemented DMEM. After the final wash, 100 μl/well of supplemented DMEM and 10 ul/well of MTT reagent (ATTC cat #30-1010K) were added. The plate was incubated at 37° C., 5% CO2 for 2-3 hrs until a purple precipitate is visible. 100 ul of Detergent Reagent (ATTC cat #30-1010K) is added to each well. The plate was covered from the light, wrapped in Parafilm to prevent evaporation, and left overnight at room temperature in the dark. The plate was shaken for 5 min and the absorbance at 570 nm is measured. To calculate the dose response, the absorbance value of control wells not containing cells was subtracted from each test well.

RPMI 8866 cells = molecular target: T2, RPMI 8866 cells (Homo sapiens, UniProt P13612+P26010); assay: α4β7-MAdCAM Cell Adhesion Assay; assay type: cell-based; conditions: thioether peptide dimers, Table 7; read-out: Cell-Adhesion A4B7
T2 sequence (P13612 34-1032): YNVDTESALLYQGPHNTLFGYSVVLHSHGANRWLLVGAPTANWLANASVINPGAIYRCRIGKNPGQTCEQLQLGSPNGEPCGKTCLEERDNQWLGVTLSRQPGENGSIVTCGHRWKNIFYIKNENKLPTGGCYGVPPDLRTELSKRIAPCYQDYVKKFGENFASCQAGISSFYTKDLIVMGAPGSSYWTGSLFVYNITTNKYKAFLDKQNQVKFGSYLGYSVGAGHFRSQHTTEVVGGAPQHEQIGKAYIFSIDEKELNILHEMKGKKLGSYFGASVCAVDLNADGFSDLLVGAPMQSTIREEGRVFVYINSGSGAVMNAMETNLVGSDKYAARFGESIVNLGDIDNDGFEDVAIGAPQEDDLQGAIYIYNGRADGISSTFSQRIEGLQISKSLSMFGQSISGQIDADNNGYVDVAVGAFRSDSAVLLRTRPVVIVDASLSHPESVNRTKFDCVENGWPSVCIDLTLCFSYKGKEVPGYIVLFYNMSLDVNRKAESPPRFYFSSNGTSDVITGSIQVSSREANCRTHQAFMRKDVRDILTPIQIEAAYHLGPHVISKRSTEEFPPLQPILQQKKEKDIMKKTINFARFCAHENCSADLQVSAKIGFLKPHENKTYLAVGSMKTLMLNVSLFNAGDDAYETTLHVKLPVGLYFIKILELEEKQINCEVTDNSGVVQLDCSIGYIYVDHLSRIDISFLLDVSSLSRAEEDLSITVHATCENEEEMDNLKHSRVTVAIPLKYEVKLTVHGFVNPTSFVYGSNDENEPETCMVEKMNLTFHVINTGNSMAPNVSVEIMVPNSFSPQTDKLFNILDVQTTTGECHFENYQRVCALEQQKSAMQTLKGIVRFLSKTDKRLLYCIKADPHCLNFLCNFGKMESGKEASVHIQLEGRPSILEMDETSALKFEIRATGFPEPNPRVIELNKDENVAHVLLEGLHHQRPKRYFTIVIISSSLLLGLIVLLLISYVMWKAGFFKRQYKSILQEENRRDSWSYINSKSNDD
T2 sequence (P26010 20-798): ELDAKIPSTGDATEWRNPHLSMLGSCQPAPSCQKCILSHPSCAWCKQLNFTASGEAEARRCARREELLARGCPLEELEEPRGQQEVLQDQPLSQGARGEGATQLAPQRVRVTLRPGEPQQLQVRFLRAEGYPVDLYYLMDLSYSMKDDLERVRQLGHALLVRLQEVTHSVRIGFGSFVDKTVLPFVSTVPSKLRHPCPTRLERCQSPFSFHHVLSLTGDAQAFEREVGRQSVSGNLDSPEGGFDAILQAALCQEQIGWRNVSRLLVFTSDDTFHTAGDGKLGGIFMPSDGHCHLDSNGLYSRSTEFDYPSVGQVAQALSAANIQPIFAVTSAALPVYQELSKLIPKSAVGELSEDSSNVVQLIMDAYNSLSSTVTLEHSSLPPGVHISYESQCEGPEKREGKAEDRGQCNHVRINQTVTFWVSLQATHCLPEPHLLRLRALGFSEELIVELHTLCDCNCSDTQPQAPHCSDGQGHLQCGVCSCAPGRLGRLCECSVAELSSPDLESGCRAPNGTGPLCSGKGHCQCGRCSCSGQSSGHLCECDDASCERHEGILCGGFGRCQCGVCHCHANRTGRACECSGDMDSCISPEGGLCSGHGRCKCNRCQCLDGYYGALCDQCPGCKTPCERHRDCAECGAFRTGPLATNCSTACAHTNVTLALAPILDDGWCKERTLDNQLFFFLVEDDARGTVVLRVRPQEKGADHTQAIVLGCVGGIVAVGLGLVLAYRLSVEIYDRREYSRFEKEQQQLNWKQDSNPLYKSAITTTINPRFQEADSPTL
Method in brief: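 Peptide inhibition of adhesion measured with MAdCAM-1/Fc chimera immobilised at 200 ng/well and MnCl2-activated (1 mM) RPMI 8866 cells, 30-45 min at 37° C. Adherent cells remaining after three washes detected by MTT reduction at 570 nm, corrected for no-cell wells, giving dose response.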

T1 sequence (P05556 21-728 limits assumed, one chain of several): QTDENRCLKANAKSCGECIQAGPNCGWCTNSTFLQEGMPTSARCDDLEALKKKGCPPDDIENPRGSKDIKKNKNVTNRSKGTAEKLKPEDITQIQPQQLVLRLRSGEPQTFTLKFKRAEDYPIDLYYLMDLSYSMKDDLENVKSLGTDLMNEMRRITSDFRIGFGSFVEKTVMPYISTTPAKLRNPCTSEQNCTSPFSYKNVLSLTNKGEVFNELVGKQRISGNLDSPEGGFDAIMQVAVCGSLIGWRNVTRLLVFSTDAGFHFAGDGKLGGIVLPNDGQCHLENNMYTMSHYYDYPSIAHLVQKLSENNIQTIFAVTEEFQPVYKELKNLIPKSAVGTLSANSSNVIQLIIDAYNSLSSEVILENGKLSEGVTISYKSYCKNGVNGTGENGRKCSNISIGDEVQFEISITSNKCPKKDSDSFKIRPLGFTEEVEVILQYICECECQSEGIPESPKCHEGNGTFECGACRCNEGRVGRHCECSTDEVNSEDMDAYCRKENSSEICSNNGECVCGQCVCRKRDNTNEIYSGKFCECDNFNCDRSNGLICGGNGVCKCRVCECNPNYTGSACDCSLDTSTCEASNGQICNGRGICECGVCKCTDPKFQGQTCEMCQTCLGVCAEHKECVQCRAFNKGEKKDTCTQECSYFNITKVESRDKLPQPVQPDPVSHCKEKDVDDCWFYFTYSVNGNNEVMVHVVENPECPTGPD

Structure (SMILES)	IC50 (α4β1)	half-life at 22 μM [1]	IC50 (Jurkat E6.1 cells)	IC50 (RPMI 8866 cells)
CC(C)C[C@@H]1NC(=O)[C@H]([C@@H](C)O)NC(=O)[C@H](CC(=O)O)NC(=O)[C@H](CO)NC(=O)[C@H](CCCNC(=N)N)N(C)C(=O)c2ccccc2CSC(C)(C)[C@@H](C(=O)N[C@@H](Cc2c[nH]c3ccccc23)C(=O)N[C@@H](CCC(=O)O)CC(=O)N[C@H](CCCCN)C(N)=O)NC1=O [compound 151] (HELM PEPTIDE1{[meR].S.D.T.L.[Pen].W.[O=C(O)CC[C@@H](CC(=O)[*:2])N[*:1]].[dK].[am]}|CHEM1{[O=C(c1ccccc1C[*:2])[*:1]]}$PEPTIDE1,CHEM1,1:R1-1:R1|PEPTIDE1,CHEM1,6:R3-1:R2$$$V2.0)	25 to 100 nM	> 3 h	–	–
CC(C)C[C@@H]1NC(=O)[C@H]([C@@H](C)O)NC(=O)[C@H](CC(=O)O)NC(=O)[C@H](CO)NC(=O)[C@H](CCCNC(=N)N)N(C)C(=O)c2ccccc2CSC(C)(C)[C@@H](C(=O)N[C@@H](Cc2ccc3ccccc3c2)C(=O)N[C@@H](CCC(=O)O)CC(=O)N[C@H](CCCCN)C(N)=O)NC1=O [compound 161]	25 to 100 nM	> 3 h	> 100000 nM	–
CC(C)C[C@@H]1NC(=O)[C@H]([C@@H](C)O)NC(=O)[C@H](CC(=O)O)NC(=O)[C@H](CO)NC(=O)[C@H](CCCNC(=N)N)N(C)C(=O)c2ccccc2CSC(C)(C)[C@@H](C(=O)N[C@@H](Cc2ccc(O)cc2)C(=O)N[C@@H](CCC(=O)O)C(=O)N[C@H](CCCCN)C(N)=O)NC1=O [compound 168] (HELM PEPTIDE1{[meR].S.D.T.L.[Pen].Y.E.[dK].[am]}|CHEM1{[O=C(c1ccccc1C[*:2])[*:1]]}$PEPTIDE1,CHEM1,1:R1-1:R1|PEPTIDE1,CHEM1,6:R3-1:R2$$$V2.0)	25 to 100 nM	–	> 100000 nM	–
CC(C)C[C@@H]1NC(=O)[C@H]([C@@H](C)O)NC(=O)[C@H](CC(=O)O)NC(=O)[C@H](CO)NC(=O)[C@H](CCCNC(=N)N)N(C)C(=O)c2ccccc2CSC(C)(C)[C@@H](C(=O)N[C@@H](Cc2c[nH]c3ccccc23)C(=O)N[C@H](CCC(=O)O)C(=O)N[C@@H](CO)C(=O)N[C@H](CCCCN)C(N)=O)NC1=O [compound 191] (HELM PEPTIDE1{[meR].S.D.T.L.[Pen].W.[dE].S.[dK].[am]}|CHEM1{[O=C(c1ccccc1C[*:2])[*:1]]}$PEPTIDE1,CHEM1,1:R1-1:R1|PEPTIDE1,CHEM1,6:R3-1:R2$$$V2.0)	–	–	> 100000 nM	< 25 nM
CC(C)C[C@@H]1NC(=O)[C@H]([C@@H](C)O)NC(=O)[C@H](CC(=O)O)NC(=O)[C@H](CO)NC(=O)[C@H](CCCNC(=N)N)N(C)C(=O)c2ccccc2CSC(C)(C)[C@@H](C(=O)N[C@@H](Cc2c[nH]c3ccccc23)C(=O)N[C@H](CCC(=O)O)C(=O)N[C@@H](CCC(=O)O)C(=O)N[C@H](CCCCN)C(N)=O)NC1=O [compound 194] (HELM PEPTIDE1{[meR].S.D.T.L.[Pen].W.[dE].E.[dK].[am]}|CHEM1{[O=C(c1ccccc1C[*:2])[*:1]]}$PEPTIDE1,CHEM1,1:R1-1:R1|PEPTIDE1,CHEM1,6:R3-1:R2$$$V2.0)	100 to 1000 nM	–	–	< 25 nM
